Here are results for 3 molecules from patent US6313090A, “Methods for treating parasitic infection using thiopeptides” (The United States of America as represented by the …, priority 2000, dated 2001).

Experiment [1] deals with C. parvum GCH1 oocysts. As to the kind of experiment: Intact C. parvum oocyst assay on MDBKF5D2 cell monolayers, immunofluorescence. Format: cell-based. The method, then:
In vitro doses of drugs. Thiostrepton (Calbiochem) was dissolved in sterile complete Dulbecco's Modified Eagle Medium (DMEM) supplemented with dimethyl sulfoxide (DMSO) at 0.2% and tested at concentrations of 800, 400, 200, and 100, 10, 1 and 0.1 μg/ml.
(§1) Intact C. parvum oocyst asset 3.0×10^4 C. parvum GCH1 oocysts per well were incubated in the above-mentioned concentrations of drug at 37° C. (8% CO2) on confluent MDBKF5D2 cell monolayers in 96 well microtiter plates. The level of infection in each well was determined and analyzed by immunofluorescence assay at 48 hours, using C. parvum sporozoite rabbit anti-serum (0.1%) and fluorescein-conjugated goat anti-rabbit antibody (1.0%). Percent inhibition was calculated by subtracting the mean parasite/drug from the mean parasitelmedium, divided by the mean parasite/medium, all of which was multiplied by 100. The analysis was performed using MCID and an inverted microscope.
In vitro doses of drugs. Thiostrepton (Calbiochem) and Phavic (NTZ) were dissolved in sterile complete Dulbecco's Modified Eagle Medium (DMEM) supplemented with dimethyl sulfoxide (DMSO) at 0.2% and tested at concentrations of 800, 400, 200, and 100 μg/ml. NTZ was tested at concentrations of 100, 10, 1 and 0.1 μg/ml. Paromomycin (Sigma) was dissolved in DMEM and tested at concentrations of 2000, 1000, 500 and 250 μg/ml.
as §1, with “assay .” for “asset”, “plates. For some monolayers, the oocysts were incubated in DMEM on the cell monolayers for four hours, at which time the monolayers were washed and then drug was added to the wells.” for “plates.”, “parasite/medium,” for “parasitelmedium,”
In vitro doses of drugs. Thiostrepton (Calbiochem), Phavic (NTZ) were dissolved in sterile complete Dulbecco's Modified Eagle Medium (DMEM) supplemented with dimethyl sulfoxide (DMSO) at 0.2%. Thiostrepton was tested at a concentration of 800 μg/ml. NTZ was tested at a concentration of 10 μg/ml. Paromomycin was dissolved in DMEM and tested at 2000 μg/ml. Cell monolayers were infected and washed, followed by the addition of drug at time intervals of 0, 2, 4, 8 and 24 hours.
as §1, with “assay.” for “asset”, “analyze” for “analyzed”, “parasite/medium,” for “parasitelmedium,”

The test system of experiment [2] is P. falciparum (strain 3D7). Description: Assay of growth inhibition, [3H]hypoxanthine incorporation. Type of experiment: cell-based. The note with it: in vitro culture; [3H]hypoxanthine uptake and incorporation. Here is the method: Assay of Growth inhibition. Thiostrepton (1525 u/mg; Calbiochem) and anisomycin (Sigma) were dissolved at 100 mM in DMSO (Pierce). P. falciparum (strain 3D7) (44) was maintained in culture with human erythrocytes (5% hematocrit) in RPMI-1640 (Life Technologies) supplemented with HEPES and sodium bicarbonate and human sera (10%) under standard conditions (18,19). The growth inhibition assay was conducted as described (20). Briefly, the parasitemia was adjusted to 0.1% parasitemia, 2.5% hematocrit and 200 μl aliquots placed in wells of a microtitre dish. Serial dilutions of drugs were made in RPMI. Thiostrepton was diluted to 10 mM in DMSO before the serial dilutions in RPMI. Aliquots (20 μl) were added in triplicate to the cultures in the microtitre plate, mixing well. At the highest concentrations (final 0.2mM), thiostrepton precipitates. After incubation for 48 hours under standard conditions, [2,8-^3 H]-hypoxanthine Moravek Biochemicals, 12.5 Ci/mmol) in RPMI (20 μl, 0.05 mCi/ml) was added to each well. After incubation for a further 24 hours, the cultures were lysed and incorporated radioactivity was measured with an automated counter.
Assay of inhibition. The effect of thiostrepton on growth and protein synthesis of P. falciparum was compared to anisomycin, since the effect of both of these drugs is on protein synthesis. To assay the effect of thiostrepton and anisomycin on the growth of P. faciparum, inhibition of the uptake and incorporation of [^3 H]hypoxanthine was quantitated at serial dilutions of the drugs on an in vitro culture of P. falciparum. […] Inhibition of the incorporation of [^3 H]leucine was also tested at the same dilutions of the drugs. For anisomycin, total protein synthesis was inhibited 50% at the IC50 (0.511 μM) for inhibition of growth, with the concentration-response almost superimposable on that of protein synthesis. […] This would occur if organelle protein synthesis was the target of inhibition (29,30).

The test system of experiment [3] is rpoB/C mRNA encoded by the 35-kb plastid-like organelle genome. Format: cell-based, P. falciparum. The conditions noted are these: thiostrepton at 8 μM, rifampin at 80 μM. Here is the method: As of organelle and cyloplasmic transcript levels. RNA polymerase transcript levels were assessed by comparing the amounts of RNA synthesized at timepoints following drug treatment. Cultures of P. falciparum (3.2% parasitemia, 5% hematocrit) were treated with thiostrepton at 8 μM and rifampin (Sigma) at 80 μM; near the IC99 values (this study and ref. 22). Aliquots (5 ml) of treated and control cultures were removed and immediately processed for RNA with a guanidinium thiocyanate solution, according to the manufacturer's directions (RNAgents, Promega). All RNA samples were dissolved in 50 μl DEPC-treated water, DNase I treated as previously described (23) and an aliquot (1 μl) was removed for RT-PCR First strand synthesis of cDNA was completed with a random hexamer (Superscript Preamplification System, Life Technologies). One-tenth of the CDNA product was utilized for PCR of rpoB/C, MSA1, and rRNA. Primers corresponding to the 3' region of rpoB, 5'-GGGCTTTAGAAGCTTTTGG-3' (SEQ ID NO:1), and the 5' region of rpoC, 5'-[…]-3' (SEQ ID NO:2) were applied as described (2,3) for PCR of nascent rpoB/C transcripts. Reactions were cycled with the following parameters: 94° C./30 seconds, 42° C./30 seconds, 72° C./60 seconds, 35 cycles. Primers for amplification of nucleotide 64 to 614 of MSA1 with 5'-GTGTGATAATATTCATGG-3' (SEQ ID NO:3) and 5'-GGAGAGCATTTGGTG-3' (SEQ ID NO:4)(24) and the small subunit rRNA with oligonucleotides 841 and 844 (23) were used for amplification reactions following the parameters in the respective references except with 35 cycles. Samples were also analyzed after 25 cycles of amplification to ensure detection in the linear range of the amplification reaction, with similar results. Following electrophoresis of aliquots from the amplification reactions on 1% agarose:TBE gels, samples were transferred to nylon membranes (GeneScreen Plus, DuPont) and hybridized as described (25). The amplification products were probed with 5'-^32 P-labeled oligonucleotides. The rpoB/C products were probed with 5'-[…]-3' (SEQ ID NO:5) (nucleotide 2009-2030 of rpoB) and 5'-CGGAGAGGTATTAATACC-3' (SEQ ED NO:6) (nucleotide 108-125 of rpoC), in 5×SSC, 10 mM sodium phosphate, 0.05% sodium pyrophosphate, 1% sodium dodecyl sulfate, 5×Denhardt's solution, 100 μg/ml yeast tRNA, 42° C. and washed in the hybridization solution lacking Denhardt's and tRNA at 37° C., three times. The final wash was 1×SSC, 0.5% sodium dodecyl sulfate, 42° C. followed by autoradiography. The same results were obtained with either probe. The MSA1 amplification products were similarly probed with 5'-[…]-3' (SEQ ID NO:7) and the rRNA products with oligonucleotide 842 (23).
The target of inhibition by thiostrepton. […]

The subject of experiment [4] is P. falciparum (strain 3D7). The note with it: concentration used, near the IC99 value; cited from earlier work.
Where [5] appears, read: Table 4 Washed at 4 hours, 1 μg/ml.
The mark [6] stands for this setting: Table 4 Washed at 4 hours, 10 μg/ml.
Setting [7] is: Table 4 Washed at 4 hours, .1 μg/ml.
Where [8] appears, read: Table 5, 10 μg/ml, drug added at 0 hrs.
The mark [9] stands for this setting: Table 5, 10 μg/ml, drug added at 2 hrs.
Setting [10] is: Table 5, 10 μg/ml, drug added at 4 hrs.
[11] abbreviates: Table 5, 10 μg/ml, drug added at 8 hrs.
The mark [12] stands for this setting: Table 5, 10 μg/ml, drug added at 24 hrs.

On to `CC(=O)Oc1ccccc1C(=O)Nc1ncc([N+](=O)[O-])s1` [NTZ], for which the “Inhibition Percent” value in experiment [1] (Table 3 Unwashed, 1 μg/ml) stood at 43.60%; in experiment [1] (Table 3 Unwashed, 10 μg/ml), 92.91%; in experiment [1] (Table 3 Unwashed, .1 μg/ml), 10.31%; in experiment [1] (setting [5]) it was 83.27%; in experiment [1] (setting [6]) it was 93.12%; in experiment [1] (setting [7]), 4.42%. Moreover, the “Inhibition Percent” value in experiment [1] (setting [8]) was determined as 91.12%; in experiment [1] (setting [9]) it was 95.76%; in experiment [1] (setting [10]) it was 91.18%; in experiment [1] (setting [11]) it was 86.01%; in experiment [1] (setting [12]) it was 60.60%. In addition, the “Inhibition Score” value in experiment [1] (Table 3 Unwashed, 1 μg/ml) is reported as 1 (1: 31-55%); in experiment [1] (Table 3 Unwashed, 10 μg/ml), 4 (4: 91-100%); in experiment [1] (Table 3 Unwashed, .1 μg/ml), 0 (0: 0-30%); in experiment [1] (setting [5]), 3 (3: 71-90%); in experiment [1] (setting [6]) it was 4 (4: 91-100%); in experiment [1] (setting [7]) it was 0 (0: 0-30%). For the same molecule, the “Inhibition Score” value in experiment [1] (setting [8]) is 4 (4: 91-100%); in experiment [1] (setting [9]), 4 (4: 91-100%); in experiment [1] (setting [10]), 4 (4: 91-100%); in experiment [1] (setting [11]), 3 (3: 71-90%); in experiment [1] (setting [12]) it was 2 (2: 56-70%). In addition, the “Parasite Count” value is 694.75 in experiment [1] (Table 3 Unwashed, 1 μg/ml); 87.31 in experiment [1] (Table 3 Unwashed, 10 μg/ml); 1104.81 in experiment [1] (Table 3 Unwashed, .1 μg/ml); 233.44 in experiment [1] (setting [5]); 96.06 in experiment [1] (setting [6]); 1334.06 in experiment [1] (setting [7]). Further, the “Parasite Count” value in experiment [1] (setting [8]) is reported as 113.06; in experiment [1] (setting [9]), 53.94; in experiment [1] (setting [10]), 112.31; in experiment [1] (setting [11]) it was 178.13; in experiment [1] (setting [12]), 501.63. For the same molecule, in experiment [1] (intracellular stages only), the “activity when drug is added 24 hours after infection” value is listed as “still highly inhibitory”.
As to `COc1ccc(C[C@H]2NC[C@H](O)[C@H]2OC(C)=O)cc1` [anisomycin], inhibition in experiment [2] was half-maximal at 500 nM (IC50).
On to `CO[C@H]1/C=C/O[C@@]2(C)Oc3c(C)c(O)c4c(O)c(c(/C=N/N5CCN(C)CC5)c(O)c4c3C2=O)NC(=O)/C(C)=C\C=C\[C@H](C)[C@H](O)[C@@H](C)[C@@H](O)[C@@H](C)[C@H](OC(C)=O)[C@@H]1C` [rifampin], for which the “decay of mRNA corresponding to rpoB/C, time of drug treatment” value in experiment [3] is at most 6 h. Besides, the “IC99 (near)” value in experiment [4] is around 80 µM.

As usually defined, the IC50 is the concentration at which inhibition is half-maximal.
